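Five compound concentrations were applied to cells in 96-well plates for 48 hours; endpoints were derived by simple linear interpolation of the resulting dose-response curve. The concentration for 50% growth inhibition is given as GI50.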 The source made the active and inactive calls. Rule as the data show it: active = GI50 up to about 1.1 µM and inactive = higher.
Assays:
Assay in all cases: DTP human tumour cell line panel, 48 h
786-0 = tested on: 786-0
A549 = tested on: A549
ACHN = tested on: ACHN
BT-549 = tested on: BT-549
CCRF-CEM = tested on: CCRF-CEM
DU-145 = tested on: DU-145
EKVX = tested on: EKVX
HCC 2998 = tested on: HCC 2998
HCT-116 = tested on: HCT-116
HCT-15 = tested on: HCT-15
HL-60 = tested on: HL-60
HOP-62 = tested on: HOP-62
HOP-92 = tested on: HOP-92
HT-29 = tested on: HT-29
Hs-578T = tested on: Hs-578T
IGROV-1 = tested on: IGROV-1
K562 = tested on: K562
KM12 = tested on: KM12
M14 = tested on: M14
MCF7 = tested on: MCF7
MDA-MB-435 = tested on: MDA-MB-435
MDA-N = tested on: MDA-N
MOLT-4 = tested on: MOLT-4
Malme-3M = tested on: Malme-3M
NCI-H226 = tested on: NCI-H226
NCI-H23 = tested on: NCI-H23
NCI-H460 = tested on: NCI-H460
NCI/ADR-RES = tested on: NCI/ADR-RES
OVCAR-3 = tested on: OVCAR-3
OVCAR-5 = tested on: OVCAR-5
OVCAR-8 = tested on: OVCAR-8
PC-3 = tested on: PC-3
RPMI-8226 = tested on: RPMI-8226
RXF 393 = tested on: RXF 393
SF-268 = tested on: SF-268
SF-295 = tested on: SF-295
SF-539 = tested on: SF-539
SK-MEL-28 = tested on: SK-MEL-28
SK-MEL-5 = tested on: SK-MEL-5
SK-OV-3 = tested on: SK-OV-3
SN12C = tested on: SN12C
SNB-19 = tested on: SNB-19
SNB-75 = tested on: SNB-75
SR = tested on: SR
SW-620 = tested on: SW-620
T47D = tested on: T47D
TK-10 = tested on: TK-10
U-251 = tested on: U-251
UACC-257 = tested on: UACC-257
UACC-62 = tested on: UACC-62
UO-31 = tested on: UO-31
A498 = tested on: A498
CAKI-1 = tested on: CAKI-1
COLO 205 = tested on: COLO 205
LOX IMVI = tested on: LOX IMVI
MDA-MB-231 = tested on: MDA-MB-231
NCI-H522 = tested on: NCI-H522
OVCAR-4 = tested on: OVCAR-4
SK-MEL-2 = tested on: SK-MEL-2

Structure (SMILES): Cc1c2c3ccccc3nc-2n(C)c2ccccc12
- GI50 (786-0): 2.02 µM (inactive)
- GI50 (A549): 1.57 µM (inactive)
- GI50 (ACHN): 0.611 µM (active)
- GI50 (BT-549): 3.71 µM (inactive)
- GI50 (CCRF-CEM): 0.724 µM (active)
- GI50 (DU-145): 3.67 µM (inactive)
- GI50 (EKVX): 2.43 µM (inactive)
- GI50 (HCC 2998): 2.64 µM (inactive)
- GI50 (HCT-116): 0.495 µM (active)
- GI50 (HCT-15): 0.548 µM
- GI50 (HL-60): 3.29 µM (inactive)
- GI50 (HOP-62): 3.78 µM (inactive)
- GI50 (HOP-92): 2.61 µM (inactive)
- GI50 (HT-29): 1.34 µM (inactive)
- GI50 (Hs-578T): 4.8 µM (inactive)
- GI50 (IGROV-1): 2.32 µM (inactive)
- GI50 (K562): 1.3 µM (inactive)
- GI50 (KM12): 1.15 µM (inactive)
- GI50 (M14): 3.48 µM (inactive)
- GI50 (MCF7): 1.41 µM (inactive)
- GI50 (MDA-MB-435): 2.9 µM (inactive)
- GI50 (MDA-N): 2.72 µM (inactive)
- GI50 (MOLT-4): 0.339 µM (active)
- GI50 (Malme-3M): 2.08 µM (inactive)
- GI50 (NCI-H226): 2.77 µM (inactive)
- GI50 (NCI-H23): 2.5 µM (inactive)
- GI50 (NCI-H460): 0.396 µM (active)
- GI50 (NCI/ADR-RES): 2.01 µM (inactive)
- GI50 (OVCAR-3): 1.77 µM (inactive)
- GI50 (OVCAR-5): 2.61 µM (inactive)
- GI50 (OVCAR-8): 1.69 µM (inactive)
- GI50 (PC-3): 2.17 µM (inactive)
- GI50 (RPMI-8226): 2.7 µM (inactive)
- GI50 (RXF 393): 1.99 µM (inactive)
- GI50 (SF-268): 3.83 µM (inactive)
- GI50 (SF-295): 3.7 µM (inactive)
- GI50 (SF-539): 2.99 µM (inactive)
- GI50 (SK-MEL-28): 3.42 µM (inactive)
- GI50 (SK-MEL-5): 0.437 µM (active)
- GI50 (SK-OV-3): 1.25 µM (inactive)
- GI50 (SN12C): 1.64 µM (inactive)
- GI50 (SNB-19): 5.35 µM (inactive)
- GI50 (SNB-75): 2.48 µM (inactive)
- GI50 (SR): 1.44 µM (inactive)
- GI50 (SW-620): 1.11 µM (active)
- GI50 (T47D): 3.08 µM (inactive)
- GI50 (TK-10): 1.94 µM (inactive)
- GI50 (U-251): 2.54 µM (inactive)
- GI50 (UACC-257): 2.11 µM (inactive)
- GI50 (UACC-62): 1.7 µM (inactive)
- GI50 (UO-31): 1.79 µM (inactive)

Structure (SMILES): O=C(c1ccccc1)c1ccc2c(c1)NC(=O)c1ccccc1SSc1ccccc1C(=O)N2
- GI50 (786-0): > 100 µM (inactive)
- GI50 (A498): > 100 µM (inactive)
- GI50 (A549): > 100 µM (inactive)
- GI50 (ACHN): > 100 µM (inactive)
- GI50 (BT-549): > 100 µM (inactive)
- GI50 (CAKI-1): > 100 µM (inactive)
- GI50 (CCRF-CEM): > 100 µM (inactive)
- GI50 (COLO 205): > 100 µM (inactive)
- GI50 (DU-145): > 100 µM (inactive)
- GI50 (EKVX): > 100 µM (inactive)
- GI50 (HCT-116): > 100 µM (inactive)
- GI50 (HCT-15): > 100 µM
- GI50 (HL-60): > 100 µM (inactive)
- GI50 (HOP-62): > 100 µM (inactive)
- GI50 (HOP-92): > 100 µM (inactive)
- GI50 (HT-29): > 100 µM (inactive)
- GI50 (Hs-578T): > 100 µM (inactive)
- GI50 (IGROV-1): > 100 µM (inactive)
- GI50 (K562): > 100 µM (inactive)
- GI50 (KM12): > 100 µM (inactive)
- GI50 (LOX IMVI): > 100 µM (inactive)
- GI50 (M14): > 100 µM (inactive)
- GI50 (MDA-MB-231): > 100 µM (inactive)
- GI50 (MDA-MB-435): > 100 µM (inactive)
- GI50 (MDA-N): > 100 µM (inactive)
- GI50 (MOLT-4): > 100 µM (inactive)
- GI50 (Malme-3M): > 100 µM (inactive)
- GI50 (NCI-H226): > 100 µM (inactive)
- GI50 (NCI-H23): > 100 µM (inactive)
- GI50 (NCI-H460): > 100 µM (inactive)
- GI50 (NCI-H522): > 100 µM (inactive)
- GI50 (NCI/ADR-RES): > 100 µM (inactive)
- GI50 (OVCAR-3): > 100 µM (inactive)
- GI50 (OVCAR-4): > 100 µM (inactive)
- GI50 (OVCAR-5): > 100 µM (inactive)
- GI50 (OVCAR-8): > 100 µM (inactive)
- GI50 (PC-3): > 100 µM (inactive)
- GI50 (RPMI-8226): > 100 µM (inactive)
- GI50 (RXF 393): > 100 µM (inactive)
- GI50 (SF-268): > 100 µM (inactive)
- GI50 (SF-295): > 100 µM (inactive)
- GI50 (SF-539): > 100 µM (inactive)
- GI50 (SK-MEL-28): > 100 µM (inactive)
- GI50 (SK-MEL-2): > 100 µM (inactive)
- GI50 (SK-MEL-5): > 100 µM (inactive)
- GI50 (SK-OV-3): > 100 µM (inactive)
- GI50 (SN12C): > 100 µM (inactive)
- GI50 (SNB-19): > 100 µM (inactive)
- GI50 (SR): 85.5 µM (inactive)
- GI50 (SW-620): > 100 µM (inactive)
- GI50 (T47D): > 100 µM (inactive)
- GI50 (TK-10): > 100 µM (inactive)
- GI50 (U-251): > 100 µM (inactive)
- GI50 (UACC-257): > 100 µM (inactive)
- GI50 (UACC-62): > 100 µM (inactive)
- GI50 (UO-31): > 100 µM (inactive)

Structure (SMILES): O=C1O[B-](c2ccccc2)(c2ccccc2)[NH+]2CCCC12 (stereo not drawn)
- GI50 (786-0): 50.7 µM (inactive)
- GI50 (A498): 55.7 µM (inactive)
- GI50 (A549): > 100 µM (inactive)
- GI50 (ACHN): 75.7 µM (inactive)
- GI50 (BT-549): 41.8 µM (inactive)
- GI50 (CAKI-1): 47.4 µM (inactive)
- GI50 (CCRF-CEM): > 100 µM (inactive)
- GI50 (COLO 205): 31.6 µM (inactive)
- GI50 (DU-145): > 100 µM (inactive)
- GI50 (EKVX): > 100 µM (inactive)
- GI50 (HCT-116): 47 µM (inactive)
- GI50 (HCT-15): 59.3 µM
- GI50 (HL-60): > 100 µM (inactive)
- GI50 (HOP-62): > 100 µM (inactive)
- GI50 (HOP-92): 16.7 µM (inactive)
- GI50 (HT-29): > 100 µM (inactive)
- GI50 (Hs-578T): 56.6 µM (inactive)
- GI50 (IGROV-1): > 100 µM (inactive)
- GI50 (K562): 67.6 µM (inactive)
- GI50 (KM12): > 100 µM (inactive)
- GI50 (LOX IMVI): > 100 µM (inactive)
- GI50 (M14): 40.5 µM (inactive)
- GI50 (MDA-MB-231): > 100 µM (inactive)
- GI50 (MDA-MB-435): > 100 µM (inactive)
- GI50 (MDA-N): 85.1 µM (inactive)
- GI50 (MOLT-4): > 100 µM (inactive)
- GI50 (Malme-3M): 51.1 µM (inactive)
- GI50 (NCI-H226): 49 µM (inactive)
- GI50 (NCI-H23): 74 µM (inactive)
- GI50 (NCI-H460): > 100 µM (inactive)
- GI50 (NCI-H522): 64.7 µM (inactive)
- GI50 (NCI/ADR-RES): 84.7 µM (inactive)
- GI50 (OVCAR-3): 38.7 µM (inactive)
- GI50 (OVCAR-4): > 100 µM (inactive)
- GI50 (OVCAR-5): > 100 µM (inactive)
- GI50 (OVCAR-8): 74 µM (inactive)
- GI50 (PC-3): 35 µM (inactive)
- GI50 (RPMI-8226): 72.8 µM (inactive)
- GI50 (RXF 393): 43.5 µM (inactive)
- GI50 (SF-268): > 100 µM (inactive)
- GI50 (SF-295): > 100 µM (inactive)
- GI50 (SF-539): 55.6 µM (inactive)
- GI50 (SK-MEL-28): 99.5 µM (inactive)
- GI50 (SK-MEL-2): 97.7 µM (inactive)
- GI50 (SK-MEL-5): 33 µM (inactive)
- GI50 (SK-OV-3): > 100 µM (inactive)
- GI50 (SN12C): > 100 µM (inactive)
- GI50 (SNB-19): > 100 µM (inactive)
- GI50 (SR): > 100 µM (inactive)
- GI50 (SW-620): 63.4 µM (inactive)
- GI50 (T47D): 76.9 µM (inactive)
- GI50 (TK-10): 44.4 µM (inactive)
- GI50 (U-251): > 100 µM (inactive)
- GI50 (UACC-257): 64.9 µM (inactive)
- GI50 (UACC-62): > 100 µM (inactive)
- GI50 (UO-31): 34.6 µM (inactive)

Reference: ChEMBL document CHEMBL1201862, “PubChem BioAssay data set” (2004)
